Tested on: HepG2 cells
Assay: LC-MS/MS targeted intracellular metabolomics
Assay type: cell-based, human
Details: Suppl Fig 9; C3 (EC15 ATP), 48 h; Bezafibrate lines = Plates 1-6 in order
How it was run: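 Metabolites extracted in-plate from HepG2 cells with 80% isopropanol and analysed by RP and HILIC LC-MS/MS in positive and negative mode. Data normalised to lyophilised untreated HepG2 reference samples and to each sample's median across 221 metabolites. Treated versus control compared by Welch t test on log-transformed data.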

O=C(O)c1cc(Oc2ccc(C(F)(F)F)cc2Cl)ccc1[N+](=O)[O-] [Acifluorfen]
2'-Deoxycytidine level vs controls: 0.56
5-Hydroxytryptophan level vs controls: 0.74
Carnitine level vs controls: 0.98
Ceramide (d18:1.C20:0) level vs controls: 0.74
Ceramide (d18:1.C24:1) level vs controls: 0.72
Ceramide (d18:1.C24:2) level vs controls: 0.68
Ceramide (d18:2.C24:1) level vs controls: 0.64
Choline plasmalogen (C36:4) level vs controls: 0.75
Choline plasmalogen (C36:5) level vs controls: 0.70
Creatine level vs controls: 0.87
Glycerol-3-phosphate level vs controls: 0.90
Hexanoylcarnitine level vs controls: 0.70
Ketoleucine level vs controls: 0.80
Lysophosphatidylcholine (C14:0) level vs controls: 1.75
Lysophosphatidylcholine (C16:0) level vs controls: 1.17
Lysophosphatidylcholine (C16:1) level vs controls: 1.22
Lysophosphatidylcholine (C20:4) level vs controls: 0.94
Lysophosphatidylcholine (C24:0) level vs controls: 1.25
Lysophosphatidylcholine (C24:1) level vs controls: 1.00
Lysophosphatidylethanolamine (C16:0) level vs controls: 1.67
Lysophosphatidylethanolamine (C18:0) level vs controls: 1.69
Lysophosphatidylethanolamine (C18:1) level vs controls: 1.09
N-Acetylaspartate level vs controls: 1.50
Pantothenic acid level vs controls: 0.68
Phosphatidylcholine (C32:0) level vs controls: 0.82
Phosphatidylcholine (C34:1) level vs controls: 0.81
Phosphatidylcholine (C34:3) level vs controls: 1.23
Phosphatidylcholine (C36:1) level vs controls: 0.76
Phosphatidylcholine (C36:2) level vs controls: 0.78
Phosphatidylcholine (C36:3) level vs controls: 0.82
Phosphatidylcholine (C36:4) level vs controls: 0.66
Phosphatidylcholine (C36:5) level vs controls: 0.71
Phosphatidylethanolamine (C36:3) level vs controls: 0.86
Phosphatidylethanolamine (C38:3) level vs controls: 1.05
Phosphatidylethanolamine (C38:5) level vs controls: 0.82
Phosphatidylethanolamine (C38:6) level vs controls: 0.91
Phosphatidylethanolamine (C40:7) level vs controls: 0.68
Phosphocholine level vs controls: 0.79
Propionylcarnitine level vs controls: 0.79
S-Adenosylhomocysteine level vs controls: 0.84
Sphingomyelin (d32:2) level vs controls: 0.65
Sphingomyelin (d33:1) level vs controls: 0.93
Sphingomyelin (d34:0) level vs controls: 1.12
Sphingomyelin (d35:1) level vs controls: 0.85
Sphingomyelin (d36:1) level vs controls: 0.84
Sphingomyelin (d36:2) level vs controls: 0.76
Sphingomyelin (d37:1) level vs controls: 0.89
Sphingomyelin (d38:1) level vs controls: 0.89
Sphingomyelin (d38:2) level vs controls: 0.83
Sphingomyelin (d39:1) level vs controls: 1.01
Sphingomyelin (d40:2) level vs controls: 0.87
Sphingomyelin (d41:2) level vs controls: 0.90
Sphingomyelin (d42:2) level vs controls: 0.85
Taurine level vs controls: 0.61
Triacylglycerol (C34:1.C18:3) level vs controls: 1.73
Triacylglycerol (C34:2.C18:0) level vs controls: 2.66
Triacylglycerol (C34:2.C18:1) level vs controls: 2.04
Triacylglycerol (C36:4.C16:0) level vs controls: 1.86
Triacylglycerol (C36:4.C18:0) level vs controls: 2.14

— PMC10693528, “A high-throughput metabolomics in vitro platform for the characterization of hepatotoxicity” (Cell Biology and Toxicology, 2023)
